Experimental data: patent publication US20120251643A1, “ANTI-DIABETIC EXTRACT OF HONEYBUSH” (Zadec ApS, priority 2007, published 2012)

Legend:
[1] = tested on: diabetic rats (T1D and T2D); assay: Flavonoids and extract administered to diabetic rats; format: in vivo; conditions: for results in diabetic rats compared with the extract: extracted and fractionated from Cyclopia
Protocol: The flavonoids specifically used were mangiferin and hesperidin.
Experiments with diabetic test animals (rats) were carried out.

[2] = Bioassay of purified fractions for anti-diabetic activity
From the text: The partially purified active extract may be dissolved in methanol, and may be further fractionated by column chromatography, employing silica gel as an adsorption medium and a chloroform/30% methanol mixture as an eluent. A plurality of different fractions may be obtained, and each may be evaluated, by suitable bioassaying procedures, to determine the anti-diabetic activity thereof.
A fraction having anti-diabetic activity may preferably be further fractionated such as by column chromatography using silica gel as an adsorption medium and a 9:1 chloroform:methanol solvent, and the resultant sub-fractions bioassayed for their anti-diabetic activity. A sub-fraction displaying anti-diabetic activity may, if desired, be further fractionated and purified, conveniently using a column chromatographic procedure with silica gel as the adsorption medium and a 9:1 ethylacetate:hexane solvent. The resultant purified fractions may again be evaluated by suitable bioassay procedures for their anti-diabetic activity.

Row | Compound | results in diabetic rats compared with the extract [1] | lowering of blood sugar and diabetic symptoms ([1]; both T1D and T2D rats) | anti-diabetic activity of purified fraction [2]
1 | COc1ccc([C@@H]2CC(=O)c3c(O)cc(O[C@@H]4O[C@H](CO[C@@H]5O[C@@H](C)[C@H](O)[C@@H](O)[C@H]5O)[C@@H](O)[C@H](O)[C@H]4O)cc3O2)cc1O [hesperidin, 7-[[6-O-(6-deoxy-α-L-mannopyranosyl)-β-D-glucopyranosyl]oxy]-2,3-dihydro-5-hydroxy-2-(3-hydroxy-4-methoxyphenyl)-4H-1-benzopyran-4-on] | results similar to those produced by the extract | – | –
2 | O=c1c2cc(O)c(O)cc2oc2cc(O)c([C@@H]3O[C@H](CO)[C@@H](O)[C@H](O)[C@H]3O)c(O)c12 [mangiferin] | results similar to those produced by the extract | effective in lowering the blood sugar and generally alleviating diabetic symptoms | superior anti-diabetic activity
